# Test results: PMC6667648 (Frontiers in Microbiology, 2019)
# Where a SMILES comes first, the peptide text is derived from it. Bridges are numbered along the chain shown (N, C = ends).
# Experiments:
# P. aeruginosa ATCC 27853 = test: microbe, parasite or virus in culture; format: cell-based, Pseudomonas aeruginosa; details: P. aeruginosa ATCC 27853; 24-h incubation; mean of 3 replicates from 2 independent experiments
# Description: (§1) Strains were obtained from American Type Culture Collection (ATCC, Manassas, VA) or the clinical isolate collection at Trideum Biosciences (Frederick, MD, USA). Bioluminescence strains of P. aeruginosa 19660, transfected with the Xen5 luciferase gene, and S. aureus ATCC® 49525™ (Wright), transfected with the Xen36 luciferase gene, were obtained from Perkin Elmer (Hopkinton, MA).
# (§2) A single colony was aseptically picked from an agar overlay and released in 25–30 mL of pre-warmed trypticase soy broth in a culture flask. Each culture was incubated overnight in a 37°C incubator. […] Pathogen growth was measured by absorbance at 600 nm. Four replicas were included for each test agent concentration. […]
# P. aeruginosa ATCC 19660 = test: microbe, parasite or virus in culture; format: cell-based, Pseudomonas aeruginosa; details: P. aeruginosa ATCC 19660; 24-h incubation; mean of 3 replicates from 2 independent experiments
# Description: as §1, §2
# P. aeruginosa 6186 = test: microbe, parasite or virus in culture; format: cell-based, Pseudomonas aeruginosa; details: 6186, 24 h
# Description: as §1, §2
# A. baumannii 6043 = test: microbe, parasite or virus in culture; format: cell-based, Acinetobacter baumannii; details: A. baumannii 6043; 24-h incubation; mean of 3 replicates from 2 independent experiments
# Description: as §1, §2
# A. baumannii 6838 = test: microbe, parasite or virus in culture; format: cell-based, Acinetobacter baumannii; details: 6838, 24 h
# Description: as §1, §2
# A. baumannii ATCC 17978 = test: microbe, parasite or virus in culture; format: cell-based, Acinetobacter baumannii; details: A. baumannii ATCC 17978; 24-h incubation; mean of 3 replicates from 2 independent experiments
# Description: as §1, §2
# C. albicans Y-326 = format: cell-based; details: 24-h incubation, mean of 3 replicates from 2 independent experiments
# Description: as §1, §2
# C. albicans Y-6359 = format: cell-based; details: 24-h incubation, mean of 3 replicates from 2 independent experiments
# Description: as §1, §2
# C. parapsilosis Y-1761 = test: microbe, parasite or virus in culture; format: cell-based; details: 24-h incubation, mean of 3 replicates from 2 independent experiments
# Description: as §1, §2
# E. cloacae 6053 = test: microbe, parasite or virus in culture; format: cell-based; details: 6053, 24 h
# Description: as §1, §2
# C. parapsilosis Y-1763 = test: microbe, parasite or virus in culture; format: cell-based; details: 24-h incubation, mean of 3 replicates from 2 independent experiments
# Description: as §1, §2
# E. cloacae 6054 = test: microbe, parasite or virus in culture; format: cell-based; details: 6054, 24 h
# Description: as §1, §2
structure (smiles),measurement,setting,value
"CC[C@H](C)[C@@H]1NC(=O)CNC(=O)[C@H](CCCCN)NC(=O)[C@H](Cc2ccc(O)cc2)NC(=O)[C@@H]2CSSC[C@H](NC1=O)C(=O)N[C@@H](Cc1ccccc1)C(=O)N[C@@H](CCCCN)C(=O)N[C@@H](CCCCN)C(=O)N[C@H](C(=O)N[C@@H](CCCCN)C(N)=O)CSSC[C@H](NC(=O)[C@H](Cc1ccccc1)NC(=O)[C@@H](N)CCCNC(=N)N)C(=O)N[C@@H](Cc1c[nH]c3ccccc13)C(=O)N[C@@H](CCCCN)C(=O)N[C@@H](C(C)C)C(=O)N2 [RP557] (H-RFCWKVCYKGICFKKCK-NH2; disulfide 3-16, 7-12)",Minimum Inhibitory Concentration (MIC),P. aeruginosa ATCC 27853,2.0 [4] μM
same,Minimum Inhibitory Concentration (MIC),P. aeruginosa ATCC 19660,2.0 [4] μM
same,Minimum Inhibitory Concentration (MIC),P. aeruginosa 6186,2.0 [4] μM
same,Minimum Inhibitory Concentration (MIC),A. baumannii 6043,4.0 [8] μM
same,Minimum Inhibitory Concentration (MIC),A. baumannii 6838,4.0 [8] μM
same,Minimum Inhibitory Concentration (MIC),A. baumannii ATCC 17978,8.0 [16] μM
same,Minimum Inhibitory Concentration (MIC),C. albicans Y-326,8.0 [16] μM
same,Minimum Inhibitory Concentration (MIC),C. albicans Y-6359,2.0 [4] μM
same,Minimum Inhibitory Concentration (MIC),C. parapsilosis Y-1761,8.0 [16] μM
same,Minimum Inhibitory Concentration (MIC),E. cloacae 6053,4.0 [8] μM
same,Minimum Inhibitory Concentration (MIC),C. parapsilosis Y-1763,1.0 [2] μM
same,Minimum Inhibitory Concentration (MIC),E. cloacae 6054,4.0 [8] μM
